ChEMBL document CHEMBL1221386, “Synthesis and pharmacological evaluation of 3-aryl-3-azolylpropan-1-amines as selective triple serotonin/norepinephrine/dopamine reuptake inhibitors” (Bioorg Med Chem Lett, 2010)

Assays:
Mus musculus [1] = assay: Antidepressant activity in mouse assessed as change in locomotion at 90 mg/kg, po; assay type: functional
[2] = Inhibition of alpha1 adrenergic receptor at 10 uM
[3] = AUC (0 to infinity) in rat at 10 mg/kg, po; assay type: ADME, organism-based; design: dose 10 mg/kg, route oral, time infinity; conditions: plasma
[4] = molecular target: Sodium-dependent serotonin transporter (Homo sapiens, UniProt P31645); assay: Inhibition of serotonin reuptake at human SERT expressed in HEK293 cells; assay type: cell-based
[5] = molecular target: T1, Muscarinic acetylcholine receptor M1 (Homo sapiens) (UniProt P11229); assay: Inhibition of muscarinic M1 receptor at 10 uM
T1 sequence (whole entry): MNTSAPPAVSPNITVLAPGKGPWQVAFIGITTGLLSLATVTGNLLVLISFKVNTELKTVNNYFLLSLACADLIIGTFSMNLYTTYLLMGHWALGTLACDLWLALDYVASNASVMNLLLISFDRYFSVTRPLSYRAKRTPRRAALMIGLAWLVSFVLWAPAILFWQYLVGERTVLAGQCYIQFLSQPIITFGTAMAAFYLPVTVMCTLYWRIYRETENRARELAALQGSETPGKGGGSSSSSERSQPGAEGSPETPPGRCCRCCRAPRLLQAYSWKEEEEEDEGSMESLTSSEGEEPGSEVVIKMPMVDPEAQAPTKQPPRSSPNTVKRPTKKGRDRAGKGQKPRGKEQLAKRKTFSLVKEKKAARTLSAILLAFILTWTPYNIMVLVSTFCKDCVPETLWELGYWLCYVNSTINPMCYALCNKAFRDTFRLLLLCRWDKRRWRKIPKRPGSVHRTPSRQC

Mus musculus [6] = assay: Antidepressant activity in mouse assessed as change in locomotion at 30 mg/kg, po; assay type: functional
[7] = Tmax in rat at 10 mg/kg, po; assay type: ADME, organism-based; design: dose 10 mg/kg, route oral; conditions: in vivo
Cytochrome P450 1A2 = molecular target: T2, Cytochrome P450 1A2 (Homo sapiens, UniProt P05177); assay: Inhibition of CYP1A2; assay type: ADME
T2 sequence (P05177 whole entry): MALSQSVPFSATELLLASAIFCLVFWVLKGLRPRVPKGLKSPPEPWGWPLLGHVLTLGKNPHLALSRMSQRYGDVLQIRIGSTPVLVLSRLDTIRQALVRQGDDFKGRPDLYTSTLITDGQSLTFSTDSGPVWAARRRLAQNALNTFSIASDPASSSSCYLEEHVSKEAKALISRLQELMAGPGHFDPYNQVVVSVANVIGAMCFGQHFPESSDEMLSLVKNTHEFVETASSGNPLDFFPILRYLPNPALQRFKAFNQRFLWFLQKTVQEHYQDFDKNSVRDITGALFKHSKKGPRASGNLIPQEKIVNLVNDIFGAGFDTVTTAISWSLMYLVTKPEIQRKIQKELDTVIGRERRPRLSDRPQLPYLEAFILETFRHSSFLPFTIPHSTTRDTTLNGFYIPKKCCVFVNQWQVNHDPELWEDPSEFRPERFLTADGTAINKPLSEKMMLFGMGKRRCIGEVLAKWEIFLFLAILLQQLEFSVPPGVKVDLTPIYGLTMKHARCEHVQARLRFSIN

[8] = molecular target: Sodium-dependent serotonin transporter (Rattus norvegicus) (UniProt P31652); assay: Displacement of [3H]paroxetine from SERT in rat cerebral cortex at 100 nM
Sodium-dependent serotonin transporter (Rattus norvegicus), sequence (P31652 whole entry): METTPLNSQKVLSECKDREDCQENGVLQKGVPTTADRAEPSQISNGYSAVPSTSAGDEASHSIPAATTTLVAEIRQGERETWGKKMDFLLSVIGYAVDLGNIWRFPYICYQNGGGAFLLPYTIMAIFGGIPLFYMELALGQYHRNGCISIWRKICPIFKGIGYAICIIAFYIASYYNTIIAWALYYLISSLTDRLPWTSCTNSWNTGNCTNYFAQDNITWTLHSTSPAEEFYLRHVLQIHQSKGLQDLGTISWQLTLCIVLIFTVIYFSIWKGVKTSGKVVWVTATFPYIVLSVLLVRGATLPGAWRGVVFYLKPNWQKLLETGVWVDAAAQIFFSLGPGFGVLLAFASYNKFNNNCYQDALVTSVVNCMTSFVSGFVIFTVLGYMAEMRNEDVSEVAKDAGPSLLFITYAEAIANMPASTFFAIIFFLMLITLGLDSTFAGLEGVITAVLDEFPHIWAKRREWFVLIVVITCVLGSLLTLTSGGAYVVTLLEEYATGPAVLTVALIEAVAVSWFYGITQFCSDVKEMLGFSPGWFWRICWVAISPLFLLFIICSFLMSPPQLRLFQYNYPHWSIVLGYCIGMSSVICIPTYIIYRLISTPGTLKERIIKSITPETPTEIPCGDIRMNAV

Sodium-dependent serotonin transporter, sequence (P31645 whole entry): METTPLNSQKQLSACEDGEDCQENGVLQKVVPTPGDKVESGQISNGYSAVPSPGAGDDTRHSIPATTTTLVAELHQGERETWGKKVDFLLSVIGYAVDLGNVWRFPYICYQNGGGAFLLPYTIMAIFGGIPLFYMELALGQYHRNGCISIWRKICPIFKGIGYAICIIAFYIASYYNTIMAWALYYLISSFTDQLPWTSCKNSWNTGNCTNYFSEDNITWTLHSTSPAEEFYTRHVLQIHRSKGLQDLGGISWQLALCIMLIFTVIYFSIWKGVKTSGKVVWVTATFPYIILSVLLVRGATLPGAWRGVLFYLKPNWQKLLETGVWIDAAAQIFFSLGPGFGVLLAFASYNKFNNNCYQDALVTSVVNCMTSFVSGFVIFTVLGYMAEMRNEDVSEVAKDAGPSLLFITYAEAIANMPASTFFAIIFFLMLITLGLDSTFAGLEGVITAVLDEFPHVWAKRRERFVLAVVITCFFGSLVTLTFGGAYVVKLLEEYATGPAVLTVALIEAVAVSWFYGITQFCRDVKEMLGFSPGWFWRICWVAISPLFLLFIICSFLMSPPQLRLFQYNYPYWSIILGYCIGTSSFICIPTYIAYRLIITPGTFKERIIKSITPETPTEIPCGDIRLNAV

inhibition [2]: < 20% | AUC(0-inf) [3]: 1790 ng·h/mL | IC50 [4]: 143 nM | inhibition [5]: < 20% | Tmax [7]: 45 min | IC50 (Cytochrome P450 1A2): > 10000 nM | inhibition [8]: 61.2%
SMILES: CNCC[C@@H](c1ccc(Cl)c(Cl)c1)n1nnc(C)n1
Activity (Mus musculus [1]): 142% | Activity (Mus musculus [6]): 92%
